For orientation: IC50 means the concentration at which inhibition is half-maximal.

Molecules are shown by their SMILES. Where only a bound is given, the exact number is not on record here.

The values below come from ChEMBL document CHEMBL3865842, “Spirobisnaphthalenes and lactones from the seeds of Strychnos angustiflora with potential anti-inflammatory activity” (Bioorg Med Chem Lett, 2016).

The test system of one data set is BV-2. The experiment in a line: Inhibition of LPS-induced nitric oxide production in mouse BV2 cells pretreated for 1 hr before LPS stimulation measured after 24 hrs by Griess assay. Type of data set: functional, cell-based. For orientation: Nitrite, measured by Griess reagent, commonly stands in for NO production.
A short description of data set [1]: Cytotoxicity against human HCT116 cells at 10 uM measured after 72 hrs by MTT assay. The data set is classed as toxicity, cell-based. Particulars: hct-116, 72 h.
The nature of data set [2]: Cytotoxicity against human HepG2 cells at 10 uM measured after 72 hrs by MTT assay. The data set is classed as toxicity, cell-based. Particulars: hepg2, 72 h.
Data set [3] in a line: Cytotoxicity against human BGC823 cells at 10 uM measured after 72 hrs by MTT assay. Type of data set: toxicity, cell-based. The conditions noted are these: bgc-823, 72 h. A general note: Tetrazolium assays rely on reduction of a dye to a coloured formazan, in cell work by metabolically active cells.
A short description of data set [4]: Cytotoxicity against human NCI-H1650 cells at 10 uM measured after 72 hrs by MTT assay. The data set is classed as toxicity, cell-based. Particulars: nci-h1650, 72 h.
The nature of data set [5]: Cytotoxicity against human A2780 cells at 10 uM measured after 72 hrs by MTT assay. The data set is classed as toxicity, cell-based. The conditions noted are these: a2780, 72 h.

In the case of `CO[C@H]1c2c(O)cccc2C2(Oc3cccc4cccc(c34)O2)[C@H](O)[C@H]1O`, the 50% inhibitory concentration (IC50) in the data set with BV-2 stood at 25.7 µM. For the same molecule, the Activity entry in data set [1], in data set [2], in data set [3], in data set [4] and in data set [5] was “Non-Toxic” each time.

In the case of `O=C1CC[C@]23Oc4ccc(O)c5c4[C@](Oc4cccc1c42)(O3)[C@H](O)CC5=O`, the half-maximal inhibitory concentration (IC50) with BV-2 is above 100 µM. The Activity result in data set [1], in data set [2], in data set [3], in data set [4] and in data set [5] was “Non-Toxic” each time.

For `O=C1CC[C@]23Oc4ccc(O)c5c4[C@](Oc4cccc1c42)(O3)[C@@H]1O[C@@H]1[C@@H]5O`, in the data set on BV-2, the concentration for half-maximal inhibition (IC50) is 11.7 µM. In addition, the Activity entry in data set [1], in data set [2], in data set [3], in data set [4] and in data set [5] was “Non-Toxic” each time.

As to `CO[C@@H]1CC(=O)c2cccc3c2[C@@]12Oc1ccc(O)c4c1[C@](O3)(O2)[C@@H]1O[C@@H]1[C@@H]4O` [PREUSSOMERIN C], the half-maximal inhibitory concentration (IC50) with BV-2 turned out to be 1.16 µM. The Activity entry in data set [1], in data set [2], in data set [3], in data set [4] and in data set [5] was “Non-Toxic” each time.

For the molecule `Oc1cccc2c1[C@H](O)C[C@@H](O)C21Oc2cccc3cccc(c23)O1`, the half-inhibitory concentration (IC50) in the data set with BV-2 was 67.6 µM. In addition, the Activity result in data set [1], in data set [2], in data set [3], in data set [4] and in data set [5] was “Non-Toxic” in each case.

For `Oc1cccc2c1[C@H](O)[C@@H]1O[C@@H]1C21Oc2cccc3cccc(c23)O1`, in the data set with BV-2, the IC50 is 4.85 µM. The Activity entry in data set [1], in data set [2], in data set [3], in data set [4] and in data set [5] was “Non-Toxic” each time.

As for `COc1cc(O)cc2c1C(=O)O[C@@H](C)CCC[C@@H](O)CCC2`, the IC50 with BV-2 was above 100 µM. The Activity entry in data set [1], in data set [2], in data set [3], in data set [4] and in data set [5] was “Non-Toxic” in each case.

`COc1cc(O)cc2c1C(=O)O[C@@H](C)CCCCCCC2` [LASIODIPLODIN]: in the data set on BV-2, the IC50 was above 100 µM. The Activity result in data set [1], in data set [2], in data set [3], in data set [4] and in data set [5] was “Non-Toxic” throughout.

In the case of `COc1cc(O)cc2c1C(=O)O[C@@H](C)CCC[C@H](O)CCC2`, in the data set with BV-2, the IC50 was 87.1 µM. Further, the Activity entry in data set [1], in data set [2], in data set [3], in data set [4] and in data set [5] was “Non-Toxic” in each case.

Regarding `O=C1C[C@@H](O)[C@]23Oc4cccc5c4[C@](CC[C@@H]5O)(Oc4ccc(O)c1c42)O3`, the IC50 with BV-2 is above 100 µM. In addition, the Activity entry in data set [1], in data set [2], in data set [3], in data set [4] and in data set [5] was “Non-Toxic” throughout.

As to `Oc1cccc2c1[C@@H](O)[C@H]1O[C@H]1C21Oc2cccc3cccc(c23)O1`, in the data set with BV-2, the IC50 worked out at 2.05 µM. In addition, the Activity entry in data set [1], in data set [2], in data set [3], in data set [4] and in data set [5] was “Non-Toxic” throughout.

Regarding `COc1cc(/C=C/C(=O)CC(=O)/C=C/c2ccc(O)c(OC)c2)ccc1O` [CURCUMIN], in the data set with BV-2, the half-maximal inhibitory concentration (IC50) was 1.42 µM.

Regarding `Oc1cccc2c1[C@@H](O)[C@H](O)[C@@H](O)C21Oc2cccc3cccc(c23)O1`, in the data set with BV-2, the IC50 is above 100 µM. For the same molecule, the Activity entry in data set [1], in data set [2], in data set [3], in data set [4] and in data set [5] was “Non-Toxic” each time.
